Assay results as given in ChEMBL document CHEMBL1152890, “Synthesis and evaluation of a novel series of heterocyclic oleanolic acid derivatives with anti-osteoclast formation activity” (Eur J Med Chem, 2009).

Assays:
[1] = Antiosteoclast activity in ICR mouse osteoblast like cells co-cultured with bone marrow cells assessed as effect on 1-alpha,25(OH)2D3-induced TRAP-positive osteoclast like multinucleated cell formation at 20 uM after 6 days medium replaced every 2 days relative to control; type: functional
[2] = Antiosteoclast activity in ICR mouse osteoblast like cells co-cultured with bone marrow cells assessed as effect on 1-alpha,25(OH)2D3-induced TRAP-positive osteoclast like multinucleated cell formation at 2 uM after 6 days medium replaced every 2 days relative to control; type: functional
[3] = Antiosteoclast activity in ICR mouse osteoblast like cells co-cultured with bone marrow cells assessed as effect on 1-alpha,25(OH)2D3-induced TRAP-positive osteoclast like multinucleated cell formation at 200 uM after 6 days medium replaced every 2 days relative to control; type: functional
[4] = Antiosteoclast activity in ICR mouse osteoblast like cells co-cultured with bone marrow cells assessed as recovery of 1-alpha,25(OH)2D3-induced TRAP-positive osteoclast like multinucleated cell formation at 2 uM after 6 days drug removal after 2 days relative to control; type: functional
[5] = Cytotoxicity against ICR mouse osteoblast like cells assessed as cell viability at 2 uM after 4 days drug removal after 2 days by MTT assay relative to control; type: cell-based; conditions: read-out: Activity
[6] = Antiosteoclast activity in ICR mouse osteoblast like cells co-cultured with bone marrow cells assessed as recovery of 1-alpha,25(OH)2D3-induced TRAP-positive osteoclast like multinucleated cell formation at 20 uM after 6 days drug removal after 2 days relative to control; type: functional

SMILES	Activity [1]	Activity [2]	Activity [3]	Activity [4]	viability at 96 h, 2 µM [5]	Activity [6]
CC(C)[C@H](NC(=O)[C@]12CCC(C)(C)C[C@H]1C1=CC[C@@H]3[C@@]4(C)Cc5nc6ccccc6nc5C(C)(C)[C@@H]4CC[C@@]3(C)[C@]1(C)CC2)C(=O)O	42.8%	47.3%	57.5%	70.6%	128%	–
COC(=O)[C@@H](NC(=O)[C@]12CCC(C)(C)C[C@H]1C1=CC[C@@H]3[C@@]4(C)Cc5nccnc5C(C)(C)[C@@H]4CC[C@@]3(C)[C@]1(C)CC2)C(C)C	27.8%	59.8%	78.4%	77.6%	142%	73.1%
CC[C@H](C)[C@H](NC(=O)[C@]12CCC(C)(C)C[C@H]1C1=CC[C@@H]3[C@@]4(C)Cc5nccnc5C(C)(C)[C@@H]4CC[C@@]3(C)[C@]1(C)CC2)C(=O)O	73.7%	16.2%	52.6%	81.3%	109%	–
COC(=O)CNC(=O)[C@]12CCC(C)(C)C[C@H]1C1=CC[C@@H]3[C@@]4(C)CCC(=O)C(C)(C)[C@@H]4CC[C@@]3(C)[C@]1(C)CC2	0%	27.2%	31.7%	73.9%	141%	41.3%
CC1(C)CC[C@]2(C(=O)O)CC[C@]3(C)C(=CC[C@@H]4[C@@]5(C)Cc6c([nH]c7ccc(Cl)cc67)C(C)(C)[C@@H]5CC[C@]43C)[C@@H]2C1	0%	13%	99.5%	73.3%	132%	0%
CC1(C)CC[C@]2(C(=O)O)CC[C@]3(C)C(=CC[C@@H]4[C@@]5(C)Cc6cc7ccccc7nc6C(C)(C)[C@@H]5CC[C@]43C)[C@@H]2C1	33.2%	39.2%	97.2%	73%	134%	18.9%
